Source: US7019028B2, “Endiandric acid H and its derivatives, process for their preparation and use thereof” (Aventis Pharma Deutschland GmbH, priority 2002, dated 2006)
pIC50: −log10 of the molar value.

Legend:
[1] = target: T1, c-maf (Mus musculus, UniProt P54843); assay: Bioassay: human IL-4 promoter/luciferase reporter in c-maf/IL-4 luc/NFAT CHO-K1 cell line; format: cell-based, murine; details: CHO-K1 cells with c-maf/IL-4 luc/NFAT vectors, 8 hours incubation; read-out: IC50 in the bioassay (inhibition of luciferase expression)
T1 construct: expressed in transfected cells; host or cells: CHO-K1 (monoclonal line c-maf/IL-4 luc/NFAT)
T1 sequence (P54843 1-370): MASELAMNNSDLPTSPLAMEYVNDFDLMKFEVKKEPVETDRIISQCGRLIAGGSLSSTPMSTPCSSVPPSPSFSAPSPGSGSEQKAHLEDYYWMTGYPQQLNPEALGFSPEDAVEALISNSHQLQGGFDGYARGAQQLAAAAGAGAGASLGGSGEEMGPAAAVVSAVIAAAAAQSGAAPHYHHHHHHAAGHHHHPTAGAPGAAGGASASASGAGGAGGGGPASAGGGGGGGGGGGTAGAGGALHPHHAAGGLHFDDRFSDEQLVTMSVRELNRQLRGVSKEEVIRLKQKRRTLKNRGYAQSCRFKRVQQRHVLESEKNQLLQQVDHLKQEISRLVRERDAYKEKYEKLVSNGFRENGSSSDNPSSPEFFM
Protocol: The zipper protein c-maf represents the assay target. It plays an important part in the release of mediators of inflammation, especially IL-4, and thus in the manifestation of inflammatory symptoms in asthma and allergies. c-maf is thus an important therapeutic target molecule for asthma, especially if it has an allergic cause. The activity of c-maf is measured in the assay on the basis of the IL-4 transcription rate. Compounds which interfere with the binding of the two transcription factors c-maf and NFAT lead in this case to a reduced expression of luciferase (read-out) through suppression of the transcription of a human IL-4 promoter/luciferase construct. […]
16 hours before the assay, CHO-K1 cells were harvested by trypsinization, washed once with PBS without Ca and Mg, resuspended in Ham's F-12 medium which additionally contained 10% fetal calf serum, 1% antibiotic/antimycotic, 0.001% Pluronic, 300 μg/ml Geneticin and 300 μg/ml Zeocin, and then quantified using a hemocytometer. […]
After the incubation time, the cells are in each case mixed with 3 μl of Bright-Glow™ luciferase assay reagent (Promega Corporation, Madison, USA) per well. The plates are then placed in the dark for 30 minutes and subsequently measured in a CyBiTM Lumax reader. […]
The inhibition was calculated as follows: [1−(LCSsample−LCSposcontr)/(LCSnegcontr−LCSposcontr)]×100(%)

[2] = Stability in the solid state and in solution; format: physicochemical; details: solid state; solutions in the pH range between 3 and 8, in particular 4 and 6
[3] = Solubility (characterization of endiandric acid H); format: physicochemical

- pIC50 [1]: 5.82
- Solubility in polar organic solvents ([3]; polar organic solvents): soluble in polar organic solvents
- Solubility in water ([3]; water): only slightly soluble in water
SMILES: O=C(O)C[C@@H]1[C@H]2C=C[C@H]3C(c4ccc5c(c4)OCO5)=C[C@@H](O)[C@@H]4C[C@H]1[C@@H]2[C@H]43 [Endiandric acid H, endiandric acid H]
- Stability [2]: stable in the solid state and in solutions in the pH range between 3 and 8
